Test results reported in paper PMC6467533 (Chembiochem : a European journal of chemical biology, 2018).
≈ marks a conversion by molar mass, not a printed value.

Key:
Mtb = settings: cited from earlier work
Mtx TPP = Mtx TPP (Mycobacterium triplex, UniProt A0A024JUE5); assay: biochemical; design: species or system M. triplex
[1] = test system: M. smegmatis biofilm formation; settings: cited from earlier work
Mtb TPP = Mtb TPP (Mycobacterium tuberculosis, UniProt P9WFZ5); format: biochemical
Mlt TPP = format: biochemical, M. lentiflavum
E. coli TPP = settings: cited from earlier work
M. aurum = settings: cited from earlier work
Ag85C = settings: cited from earlier work

Mtx TPP, sequence (A0A024JUE5 1-354): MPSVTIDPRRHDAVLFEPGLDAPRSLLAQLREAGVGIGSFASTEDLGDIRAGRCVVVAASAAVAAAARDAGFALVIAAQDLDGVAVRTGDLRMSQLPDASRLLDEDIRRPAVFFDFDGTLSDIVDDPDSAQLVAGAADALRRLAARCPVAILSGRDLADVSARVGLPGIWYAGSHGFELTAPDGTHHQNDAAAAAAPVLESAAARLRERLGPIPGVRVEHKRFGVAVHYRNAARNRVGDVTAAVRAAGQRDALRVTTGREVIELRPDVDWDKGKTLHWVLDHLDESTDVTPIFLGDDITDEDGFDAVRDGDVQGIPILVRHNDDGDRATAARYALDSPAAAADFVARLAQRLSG
Mtb TPP, sequence (P9WFZ5 whole entry, looked up): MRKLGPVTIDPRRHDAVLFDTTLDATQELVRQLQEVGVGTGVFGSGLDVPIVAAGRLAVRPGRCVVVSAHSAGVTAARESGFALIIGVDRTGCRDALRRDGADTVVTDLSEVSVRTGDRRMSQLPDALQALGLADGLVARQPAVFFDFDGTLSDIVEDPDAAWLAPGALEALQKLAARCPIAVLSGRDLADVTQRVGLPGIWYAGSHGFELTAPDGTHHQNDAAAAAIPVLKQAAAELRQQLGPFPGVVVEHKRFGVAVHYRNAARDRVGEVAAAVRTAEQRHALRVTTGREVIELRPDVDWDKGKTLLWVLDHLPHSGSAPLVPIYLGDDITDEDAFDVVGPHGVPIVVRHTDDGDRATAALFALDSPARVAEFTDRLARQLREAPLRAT

OC[C@H]1O[C@H](O[C@H]2O[C@H](CBr)[C@@H](O)[C@H](O)[C@H]2O)[C@H](O)[C@@H](O)[C@@H]1O [6-bromo-6-deoxy-α,α’-trehalose]
MIC against Mtb (Mtb): 200 µg/mL (≈ 494 µM)

O=P(O)(O)CC[C@H]1O[C@H](O[C@H]2O[C@H](CO)[C@@H](O)[C@H](O)[C@H]2O)[C@H](O)[C@@H](O)[C@@H]1O [TEP, 6-Deoxy-6-(methylenephosphonic acid)-α,α’-trehalose]
IC50 (Mtx TPP): 1960 ± 261 µM

O=P(O)(O)C[C@H]1O[C@H](O[C@H]2O[C@H](CO)[C@@H](O)[C@H](O)[C@H]2O)[C@H](O)[C@@H](O)[C@@H]1O [TMP, 6-Deoxy-6-(phosphonic acid)-α,α’-trehalose]
IC50 (Mtx TPP): 288 ± 32 µM

OCC1OC(OC2OC(CF)C(O)C(O)C2O)C(O)C(O)C1O (stereo not drawn) [6-fluoro-6-deoxy-α,α’-trehalose]
MIC against Mtb (Mtb): 200 µg/mL (≈ 581 µM)
MIC, M. smegmatis biofilm formation [1]: 50 to 100 µM

CC1OC(OC2OC(CO)C(O)C(O)C2O)C(O)C(O)C1O (stereo not drawn) [6-deoxy-α,α’-trehalose]
MIC, M. smegmatis biofilm formation [1]: 50 to 100 µM

OC[C@H]1O[C@H](O[C@H]2O[C@H](CC3CO3)[C@@H](O)[C@H](O)[C@H]2O)[C@H](O)[C@@H](O)[C@@H]1O (stereo partly drawn) [Compound 7, 6-deoxy-6-oxiranyl-α,α’-trehalose]
inhibition of Mtx TPP (Mtx TPP): no inhibition
inhibition of Mtb TPP (Mtb TPP): no inhibition
inhibition of Mlt TPP (Mlt TPP): no inhibition

OCC1=C[C@@H](N[C@H]2C[C@H](CO)[C@@H](O[C@H]3O[C@@H](CO)[C@H](O)[C@@H](O)[C@@H]3O)[C@H](O)[C@H]2O)[C@H](O)[C@@H](O)[C@@H]1O [Validamycin A]
IC50 against Mtx TPP (Mtx TPP): unexpectedly high
inhibition of E. coli TPP (E. coli TPP): completely inhibit
IC50 against Mtb TPP (Mtb TPP): unexpectedly high
IC50 against Mlt TPP (Mlt TPP): unexpectedly high

[N-]=[N+]=NC[C@H]1O[C@H](O[C@H]2O[C@H](CO)[C@@H](O)[C@H](O)[C@H]2O)[C@H](O)[C@@H](O)[C@@H]1O [6-azido-6-deoxy-α,α’-trehalose]
MIC, growth of M. aurum (M. aurum): 200 µg/mL
inhibition of Ag85C activity (Ag85C): inhibit Ag85C activity
MIC, M. smegmatis biofilm formation [1]: 50 to 100 µM
